Columns and labels:
HepG2 cells [1] = assay: Hepatic lipogenesis gene expression (ACC, FAS, ACLY mRNA by RTPCR) in HepG2 cells, Example 2; assay type: cell-based, human; details: 10 μM, 24 h, relative to 18S
Experimental: FIG. 5 Human hepatoblastoma cell line HepG2 was treated with vehicle (DMSO) or 10 μM of GP4, GP7, GP8 or GP9 for 24 h. RNA was extracted and mRNA levels of Acetyl-CoA Carboxylase (ACC), Fatty Acid Synthase (FAS) and ATP-Citrate Lyase (ACLY) relative to 18S were measured by RTPCR.
Cell culture reagents were from Life Technologies Inc (Invitrogen SA, Barcelona, Spain). HepG2 hepatoblastoma cells (cat. no. HB-8065; ATCC, LGC Standards SLU, Barcelona, Spain) were maintained in Dulbecco's modified Eagle medium (DMEM) supplemented with 10% fetal bovine serum and antibiotics. HepG2 cells were treated with vehicle or 10 μM of GP4, GP7, GP8 and GP9 for 24 h. LX-2 human hepatic stellate cells (SCC064) were maintained in DMEM supplemented with 2% fetal bovine serum and antibiotics. For experiments, LX-2 were cultured for 24 h in DMEM 0.2% FBS and treated for 24 h with vehicle or TGFβ1 (20 ng/ml) in the absence or presence of 8 μM of GP4, GP7, GP8 and GP9 for 24 h. At the end of the experiment's cells were harvested for gene expression analysis.
Total RNA was extracted from HepG2 and LX-2 cells using TRIzol reagent (Invitrogen SA). Reverse transcription was performed at 42° C. for 50 minutes using […] of total RNA, 200 U of Superscript II, and an oligo-dT primer and reagents provided by Invitrogen. An aliquot of the reverse transcription product was amplified in a […] reaction using SYBRGreen (Invitrogen SA) with appropriate oligonucleotide primer pairs corresponding to human ACC, FAS, ACLY, Col1A1 and 18S (shown in table 7). Results were analyzed using the 7000 Sequence Detection System program (Applied Biosystems, Thermo Fisher Scientific, Barcelona, Spain) (Sex Hormone-Binding Globulin Reduction in Metabolic Disorders May Play a Role in NAFLD Development.Saez-Lopez C, Barbosa-Desongles A, Hernandez C, Dyer R A, Innis S M, Simo R, Selva D M. Endocrinology. 2017 Mar. 1; 158(3):545-559. doi: 10.1210/en.2016-1668).

human mature adipocytes [2] = assay: Lipolysis in human mature adipocytes (glycerol production), Example 2; assay type: cell-based; details: 16 h; for increase of glycerol production (lipolysis): 10 μM, with respect to control cells
Experimental: FIG. 7. Mature human subcutaneous adipocytes were treated with vehicle (DMSO), 3 μM of Isoproterenol or 10 μM of GP4, GP8 or GP9 for 16 h. Glycerol concentration was assessed using a Lipolysis Assay Kit (Tebu-bio). Lipolysis induction was calculated with respect to the control cells treated with DMSO.
(§1) Human preadipocytes and cell culture reagents were from purchased from Tebu-Bio (Tebu-bio, Barcelona, Spain) and differentiation protocol was done following the manufacturer's instructions. Human adipocytes were maintained in a humidified incubator with 5% CO2 at 37° C. (Sex hormone-binding globulin overexpression protects against high-fat diet-induced obesity in transgenic male mice. Saez-Lopez C, Villena J A, Simo R, Selva D M. J Nutr Biochem. 2020 November; 85:108480. doi: 10.1016/j.jnutbio.2020.108480).
Lipolysis assays were performed using a Lipolysis Kit (Tebu-Bio) following the manufacturer's instructions as previously described.

LX-2 cells = assay: Fibrosis in LX-2 cells: Col1A1 mRNA induced by TGFβ1, Example 2; assay type: cell-based, human; details: 8 μM, 24 h
Experimental: FIG. 6. Human hepatic stellate cell line LX-2 was treated with vehicle (DMSO) or TGFβ1 (10 ng/ml) in the absence or presence of 8 μM of GP8 or GP9 for 24 h. RNA was extracted and mRNA levels of collagen 1A1 (Col1A1) relative to 18S were measured by RTPCR.
Cell culture reagents were from Life Technologies Inc (Invitrogen SA, Barcelona, Spain). HepG2 hepatoblastoma cells (cat. no. HB-8065; ATCC, LGC Standards SLU, Barcelona, Spain) were maintained in Dulbecco's modified Eagle medium (DMEM) supplemented with 10% fetal bovine serum and antibiotics. HepG2 cells were treated with vehicle or 10 μM of GP4, GP7, GP8 and GP9 for 24 h. LX-2 human hepatic stellate cells (SCC064) were maintained in DMEM supplemented with 2% fetal bovine serum and antibiotics. […]
Total RNA was extracted from HepG2 and LX-2 cells using TRIzol reagent (Invitrogen SA). […] Results were analyzed using the 7000 Sequence Detection System program (Applied Biosystems, Thermo Fisher Scientific, Barcelona, Spain) (Sex Hormone-Binding Globulin Reduction in Metabolic Disorders May Play a Role in NAFLD Development.Saez-Lopez C, Barbosa-Desongles A, Hernandez C, Dyer R A, Innis S M, Simo R, Selva D M. Endocrinology. 2017 Mar. 1; 158(3):545-559. doi: 10.1210/en.2016-1668).

HepG2 cells [3] = assay: Hepatic lipogenic key enzymes in HepG2 cells in the presence of 30 mM fructose (2 h), Example 7; assay type: cell-based, human; details: 40 μg/ml
Experimental: FIG. 34. Effects of different peptides and SHBG in reducing hepatic lipogenic key enzymes in the presence of 30 mM fructose. Each bar within each group represents mRNA levels of a key hepatic lipogenic enzyme, from left to right: Acetyl-CoA Carboxylase (ACC), ATP Citrate Lyase (ACLY) and Fatty Acid Synthase (FAS), and a key transcription factor regulating several lipogenic enzymes such as PPARγ (PPARγ).
Cell culture reagents were from Life Technologies Inc (Invitrogen SA, Barcelona, Spain). HepG2 hepatoblastoma cells (cat. no. HB-8065; ATCC, LGC Standards SLU, Barcelona, Spain) were maintained in Dulbecco's modified Eagle medium (DMEM) supplemented with 10% fetal bovine serum and antibiotics.
• HepG2 cells were cultured for 5 day in the absence or presence of 30 mM fructose. Cells cultured in 30 mM fructose were daily treated with vehicle, Telmisartan, Semaglutide or EDL6D. • HepG2 cells were cultured for 24 h in the absence or presence of GP6 (40 μg/ml), GP10 (40 μg/ml), GP11 (40 μg/ml), GP12 (40 μg/ml), GP13 (40 μg/ml) or SHBG (20 nM). • HepG2 cells were cultured in the absence or presence of 30 mM fructose and treated for 2 h with vehicle or GP4 (40 μg/ml), GP6 (40 μg/ml), GP7 (40 μg/ml), GP8 (40 μg/ml), GP9 (40 μg/ml), GP10 (40 μg/ml), GP11 (40 μg/ml), GP12 (40 μg/ml), GP13 (40 μg/ml) or SHBG (20 nM).
Total RNA was extracted from HepG2 and LX-2 cells using TRIzol reagent (Invitrogen SA). Reverse transcription was performed at 42° C. for 50 minutes using […] of total RNA, 200 U of Superscript II, and an oligo-dT primer and reagents provided by Invitrogen. An aliquot of the reverse transcription product was amplified in a […] reaction using SYBRGreen (Invitrogen SA) with appropriate oligonucleotide primer pairs corresponding to human SHBG, ACC, FAS, ACLY, PPARG, and 18S and mouse ACC, FAS, ACLY, PPARG, Col1A1 and 18S. Results were analyzed using the 7000 Sequence Detection System program (Applied Biosystems, Thermo Fisher Scientific, Barcelona, Spain) (Shez-Lopez et al Endocrinology 2017).

human mature adipocytes [4] = assay: Lipolysis in human mature adipocytes (glycerol production), Example 3; assay type: cell-based; details: Homo sapiens, Adipocyte; 1 μM, 16 h, with respect to controls; read-out: increase of glycerol concentration (lipolysis positive control)
Experimental: FIG. 4 Mature human subcutaneous adipocytes were treated with vehicle (DMSO), 1 μM of Isoproterenol, Semaglutide (10 nM) or GP6 (25, 50 or 100 μg/ml) for 16 h. Glycerol concentration was assessed using a Lipolysis Assay Kit (Tebu-bio).
as §1
Lipolysis assays were performed using a Lipolysis Kit (Tebu-Bio) following the manufacturer's instructions as previously described by Saez-Lopez and collaborators (Sex hormone-binding globulin overexpression protects against high-fat diet-induced obesity in transgenic male mice. Saez-Lopez C, Villena J A, Simo R, Selva D M. J Nutr Biochem. 2020 November; 85:108480. doi: 10.1016/j.jnutbio.2020.108480.)

CC[C@@H](C)[C@@H](NC(=O)[C@H](NC(=O)CNC(=O)[C@@H](CCC(=O)O)NC(=O)[C@H]1CCCN1C(=O)[C@@H](CC(=O)O)NC(=O)[C@@H](Cc1c[nH]c2ccccc12)NC(=O)[C@H](N)[C@H](C)O)C(C)C)C(=O)N[C@H](Cc1ccccc1)C(=O)N[C@H](Cc1ccc(O)cc1)C(=O)NCC(=O)N[C@H](CC(=O)O)C(=O)N[C@@H](C(=O)N[C@H](CC(N)=O)C(=O)N1CCC[C@@H]1C(=O)N[C@H](CCCCN)C(=O)N[C@H](CC(=O)O)C(=O)N[C@H](CC(=O)O)C(=O)N[C@H](Cc1c[nH]c2ccccc12)C(=O)N[C@H](Cc1ccccc1)C(=O)N[C@H](CCSC)C(=O)N[C@H](CC(C)C)C(=O)NCC(=O)N[C@H](CC(C)C)C(=O)N[C@H](CCCNC(=N)N)C(=O)N[C@H](CC(=O)O)C(=O)NCC(=O)N[C@H](CCCNC(=N)N)C(=O)N1CCC[C@@H]1C(=O)N[C@H](CCC(=O)O)C(=O)O)[C@H](C)O [GP9]
ATP-Citrate Lyase (ACLY) mRNA levels (HepG2 cells [1]): did not alter | Acetyl-CoA Carboxylase (ACC) mRNA levels (HepG2 cells [1]): did not alter | Fatty Acid Synthase (FAS) mRNA levels (HepG2 cells [1]): reduced | increase of glycerol production (lipolysis) (human mature adipocytes [2]): 170% | reduction of Col1A1 mRNA levels induced by TGFβ1 (LX-2 cells): 21% | fructose-induced expression of ACC (HepG2 cells [3]): able to reduce the expression of ACC and ACLY more effectively than SHBG | fructose-induced expression of ACLY (HepG2 cells [3]): able to reduce the expression of ACC and ACLY more effectively than SHBG | fructose-induced expression of FAS (HepG2 cells [3]): had no effect on FAS | fructose-induced expression of PPARγ (HepG2 cells [3]): increased PPARγ expression

CC[C@@H](C)[C@@H](NC(=O)[C@@H](CCCCN)NC(=O)[C@H](NC(=O)[C@@H](CC(C)C)NC(=O)[C@@H](CC(=O)O)NC(=O)[C@@H](Cc1ccccc1)NC(=O)[C@H](NC(=O)[C@@H](CCSC)NC(=O)[C@H](N)C(C)C)[C@H](C)O)[C@H](C)O)C(=O)N[C@@H](C(=O)N[C@H](CCCCN)C(=O)N[C@@H](C(=O)N[C@H](CO)C(=O)N[C@H](CO)C(=O)N[C@H](CO)C(=O)N[C@H](Cc1ccccc1)C(=O)N[C@H](CCC(=O)O)C(=O)N[C@@H](C(=O)N[C@H](CCCNC(=N)N)C(=O)N[C@@H](C(=O)N[C@H](Cc1c[nH]c2ccccc12)C(=O)N[C@H](CC(=O)O)C(=O)N1CCC[C@@H]1C(=O)N[C@H](CCC(=O)O)C(=O)NCC(=O)N[C@@H](C(=O)N[C@@H](C(=O)N[C@H](Cc1ccccc1)C(=O)N[C@H](Cc1ccc(O)cc1)C(=O)O)[C@H](C)CC)C(C)C)[C@H](C)O)C(C)C)[C@H](C)O)[C@H](C)O [GP4]
ATP-Citrate Lyase (ACLY) mRNA levels (HepG2 cells [1]): did not alter | Acetyl-CoA Carboxylase (ACC) mRNA levels (HepG2 cells [1]): reduced | Fatty Acid Synthase (FAS) mRNA levels (HepG2 cells [1]): increased | increase of glycerol production (lipolysis) (human mature adipocytes [2]): 500% | fructose-induced expression of ACC (HepG2 cells [3]): able to reduce | fructose-induced expression of ACLY (HepG2 cells [3]): able to reduce | fructose-induced expression of FAS (HepG2 cells [3]): able to reduce | fructose-induced expression of PPARγ (HepG2 cells [3]): able to reduce

CC(C)NCC(O)c1ccc(O)c(O)c1 (stereo not shown) [isoproterenol, 4-[1-hydroxy-2-(propan-2-ylamino)ethyl]benzene-1,2-diol, reference compound]
activation at 1 µM (human mature adipocytes [4]): 400% | activation at 3 µM (human mature adipocytes [2]; Homo sapiens, Adipocyte, 3 μM, with respect to control, read-out: increase of glycerol concentration (lipolysis positive control)): 370%

— patent US20260297136A1, “PEPTIDES WITH LIPOLYTIC, ANTI-LIPOGENIC, ANTIFIBROTIC AND ANTI-INFLAMMATORY ACTIVITY” (FUNDACIÓ HOSPITAL UNIVERSITARI VALL D'HEBRON - INSTITUT DE …, priority 2023, published 2026)
